# From patent publication US20190115105A1, “TANDEM DUPLICATOR PHENOTYPE (TDP) AS A DISTINCT GENOMIC CONFIGURATION IN CANCER AND USE THEREOF” (The Jackson Laboratory, priority 2016, published 2019)
# Where two headings read alike, the source gives them in different places.
# What was measured:
# [1] = system: TNBC patient derived xenograft (PDX) models; experiment: In vivo response in patient derived xenograft (PDX) models of TNBC; set-up: species or system mice; details: for association of the TDP with sensitivity in PDX models: same eight TNBC PDX models, data not shown
# Text: This hypothesis was explored further by testing in vivo response to cisplatin treatment in eight independent patient derived xenograft (PDX) models of TNBC. […] Thus in both established cell lines and in in vivo patient derived xenografts, TDP status is strongly associated with cisplatin sensitivity.
# TNBC patient-derived xenograft models were established at The Jackson Laboratory campus in Sacramento (JAX-West) and tested for cisplatin sensitivity as previously published. All animal procedures were performed under IACUC protocol #12027. Briefly, patient tumor material acquired from biopsy or surgical resection was implanted subcutaneously into the flank of NOD-scid IL2r gamma-chain null female mice (8-10 week-old). Models were considered “established” when log-phase growth in a second passage was evident. Individual tumor-bearing mice were randomized into treatments cohorts of at least six animals each on an accrual basis when tumors reached a volume of 150 mm^3 (day 0), at which point each tumor model was assessed for its response to cisplatin treatment, administrated at a dose of 2 mg/kg body weight and following a three-week regimen consisting of one IV injection per week. Changes in tumor volumes were measured twice a week for four full weeks from the beginning of the treatment or until tumor volumes reached the 1500 mm^3 endpoint. Treatment outcome was evaluated in terms of total response (percentage of tumor shrinkage/growth at day 20 relative to day 0). The […] TNBC PDX models that were available as part of The Jackson Laboratory inventory of TNBC PDX Live™ tumor-bearing mice were analyzed. In combination with a high number of replicates per model (6-10 animals per treatment arm), enough power to observe the statistically significant effect of the TDP configuration on cisplatin response was obtained.
# HCC2218 = details: HCC2218, ERBB2+, non-TDP, TDP Score −0.849; GDSC data base; cited from earlier work
# HCC1187 [2] = details: HCC1187, TNBC, TDP, TDP Score 0.152; GDSC data base; cited from earlier work
# HCC2157 = details: HCC2157, TNBC, TDP, TDP Score 0.076; GDSC data base; cited from earlier work
# HCC1599 [3] = details: HCC1599, TNBC, non-TDP, TDP Score −0.447; GDSC data base; cited from earlier work
# MB231 [4] = details: MB231, TNBC, non-TDP, TDP Score −0.306; GDSC data base; cited from earlier work
# HCC38 [5] = details: HCC38, TNBC, TDP, TDP Score 0.367; GDSC data base; cited from earlier work
# HCC1937 [6] = details: HCC1937, TNBC, non-TDP, TDP Score −0.17; GDSC data base; cited from earlier work
# Hs578T = experiment: Cell viability IC50 (WST-8), Hs578T; assay type: cell-based, human; details: TDP Score −0.54, 72 hours
# Text: (§1) All of the cell lines were purchased from the American Type Culture Collection (ATCC). They were authenticated by Short Tandem Repeat (STR) DNA profiling and regularly tested for Mycoplasma contamination using the MycoAlert PLUS Mycoplasma Detection Kit (Lonza). MB436, HCC38, HCC1187, HCC1395, MDA-MB231, HCC1937, HCC1599, HCC1143, HCC70, DU4475, MDA-MB157, HCC1806 were maintained in RPMI with 10% fetal bovine serum (FBS). BT549 was maintained in DMEM with 10% v/v FBS, and Hs578T in DMEM with 10% FBS and 0.01 mg/ml bovine insulin. IC50 value determinations were obtained by plating target cells in 96 well plates at a density of 1-5×10^3 cells per well. After twenty-four hours, cisplatin (Santa Cruz Biotechnology, Inc.) or carboplatin (Selleck Chemicals) were added to the culture medium in half-log serial dilutions in the range of 3.3 nM to 100 μM, in triplicate wells. Cells were incubated for 72 hours before assessing cell viability using the WST-8 assay (Dojindo Molecular Technologies, Inc.). Absorbance values were normalized to control wells (medium only) and IC50 values were calculated using the IC50R package. Two independent replicate experiments were carried out for each cell line and each treatment and the average IC50 value from the two experiments was used for the analysis.
# HCC1806 = experiment: Cell viability IC50 (WST-8), HCC1806; assay type: cell-based, human; details: HCC1806, TDP Score 0.08, 72 hours
# Text: as §1
# HCC70 = experiment: Cell viability IC50 (WST-8), HCC70; assay type: cell-based, human; details: HCC70, TDP Score −0.3, 72 hours
# Text: as §1
# HCC1395 [7] = experiment: Cell viability IC50 (WST-8), HCC1395; assay type: cell-based, human; details: HCC1395, TDP Score 0.118, 72 hours
# Text: as §1
# HCC1395 [8] = details: HCC1395, TNBC, TDP, TDP Score 0.118; GDSC data base; cited from earlier work
# BT549 = experiment: Cell viability IC50 (WST-8), BT549; assay type: cell-based, human; details: BT549, TDP Score −0.3, 72 hours
# Text: as §1
# MB157 = experiment: Cell viability IC50 (WST-8), MB157; assay type: cell-based, human; details: MB157, TDP Score −0.39, 72 hours
# Text: as §1
# HCC38 [9] = experiment: Cell viability IC50 (WST-8), HCC38; assay type: cell-based, human; details: HCC38, TDP Score 0.367, 72 hours
# Text: as §1
# HCC1954 = details: HCC1954, ERBB2+, non-TDP, TDP Score −0.434; GDSC data base; cited from earlier work
# HCC1937 [10] = experiment: Cell viability IC50 (WST-8), HCC1937; assay type: cell-based, human; details: HCC1937, TDP Score −0.17, 72 hours
# Text: as §1
# HCC1143 = experiment: Cell viability IC50 (WST-8), HCC1143; assay type: cell-based, human; details: HCC1143, TDP Score −0.424, 72 hours
# Text: as §1
# MB436 = experiment: Cell viability IC50 (WST-8), MB436; assay type: cell-based, human; details: MB436, TDP Score 0.469, 72 hours
# Text: as §1
# DU4475 = experiment: Cell viability IC50 (WST-8), DU4475; assay type: cell-based, human; details: DU4475, TDP Score −0.36, 72 hours
# Text: as §1
# T47D = details: ER/PR+, non-TDP, TDP Score −0.269, GDSC data base; cited from earlier work
# MB231 [11] = experiment: Cell viability IC50 (WST-8), MB231; assay type: cell-based, human; details: MB231, TDP Score −0.306, 72 hours
# Text: as §1
# HCC1187 [12] = experiment: Cell viability IC50 (WST-8), HCC1187; assay type: cell-based, human; details: HCC1187, TDP Score 0.152, 72 hours
# Text: as §1
# HCC1599 [13] = experiment: Cell viability IC50 (WST-8), HCC1599; assay type: cell-based, human; details: HCC1599, TDP Score −0.447, 72 hours
# Text: as §1
# MCF-7 = details: MCF-7, ER/PR+, TDP, TDP Score 0.385; GDSC data base; cited from earlier work
smiles,measurement,setting,value
COc1cccc2c1C(=O)c1c(O)c3c(c(O)c1C2=O)C[C@@](O)(C(=O)CO)C[C@@H]3O[C@H]1C[C@H](N)[C@H](O)[C@H](C)O1 [doxorubicin],association of the TDP with sensitivity in PDX models,[1],not associated with sensitivity
COc1cc(N2CCC(N3CCN(C)CC3)CC2)ccc1Nc1ncc(Cl)c(Nc2ccccc2S(=O)(=O)C(C)C)n1 [NVP-TAE684],IC50 Ln (μM),HCC2218,5.37 Ln (μM)
same,IC50 Ln (μM),HCC1187 [2],0.62 Ln (μM)
same,IC50 Ln (μM),HCC2157,0.38 Ln (μM)
same,IC50 Ln (μM),HCC1599 [3],2.98 Ln (μM)
"N.N.[Cl][Pt][Cl] [Cisplatin, cisplatin]",IC50 Ln (μM),MB231 [4],5.57 Ln (μM)
same,IC50 Ln (μM),HCC2218,5.99 Ln (μM)
same,IC50 Ln (μM),HCC38 [5],5.07 Ln (μM)
same,IC50 Ln (μM),HCC1937 [6],4.92 Ln (μM)
same,IC50 Ln (μM),Hs578T,3.62 Ln (μM)
same,IC50 Ln (μM),HCC1806,2.76 Ln (μM)
same,IC50 Ln (μM),HCC70,2.75 Ln (μM)
same,IC50 Ln (μM),HCC1395 [7],2.4 Ln (μM)
same,IC50 Ln (μM),HCC1395 [8],4.96 Ln (μM)
same,IC50 Ln (μM),BT549,2.28 Ln (μM)
same,IC50 Ln (μM),MB157,2.62 Ln (μM)
same,IC50 Ln (μM),HCC1187 [2],4.76 Ln (μM)
same,IC50 Ln (μM),HCC38 [9],2.8 Ln (μM)
same,IC50 Ln (μM),HCC1954,6.94 Ln (μM)
same,IC50 Ln (μM),HCC1937 [10],3.22 Ln (μM)
same,IC50 Ln (μM),HCC1143,3.3 Ln (μM)
same,IC50 Ln (μM),MB436,1.17 Ln (μM)
same,tumor growth compared to the vehicle arm,"[1]; all five TDP PDX models, three-week regimen, 2 mg/kg IV weekly",significant reduction in tumor growth
same,tumor shrinkage of individual tumors (partial response),"[1]; four out of the five TDP PDX models, three-week regimen, 2 mg/kg, one IV injection per week",> 80%
same,reduction in tumor volume after three weeks of treatment,"[1]; three non-TDP PDX models, 2 mg/kg IV weekly",none of the three non-TDP models analyzed exhibited a reduction in tumor volume
same,response compared to the vehicle arm,"[1]; three non-TDP PDX models, three-week regimen, 2 mg/kg IV weekly",only one out of the three models showed a significant response
same,IC50 Ln (μM),DU4475,2.04 Ln (μM)
same,IC50 Ln (μM),T47D,4.86 Ln (μM)
same,IC50 Ln (μM),MB231 [11],3.52 Ln (μM)
same,IC50 Ln (μM),HCC1187 [12],2.15 Ln (μM)
same,IC50 Ln (μM),HCC1599 [13],2.65 Ln (μM)
Nc1ccn([C@@H]2O[C@H](CO)[C@@H](O)[C@@H]2O)c(=O)n1 [Cytarabine],IC50 Ln (μM),MB231 [4],2.18 Ln (μM)
same,IC50 Ln (μM),HCC2218,4.68 Ln (μM)
same,IC50 Ln (μM),HCC38 [5],0.63 Ln (μM)
same,IC50 Ln (μM),HCC1937 [6],3.32 Ln (μM)
same,IC50 Ln (μM),MCF-7,0.69 Ln (μM)
same,IC50 Ln (μM),HCC1395 [8],1.1 Ln (μM)
same,IC50 Ln (μM),HCC1187 [2],3.36 Ln (μM)
same,IC50 Ln (μM),HCC1954,3.41 Ln (μM)
same,IC50 Ln (μM),T47D,3.47 Ln (μM)
CC(=O)O[C@@]12CO[C@@H]1C[C@H](O)[C@@]1(C)C(=O)[C@H](O)C3=C(C)[C@@H](OC(=O)[C@H](O)[C@@H](NC(=O)OC(C)(C)C)c4ccccc4)C[C@@](O)([C@@H](OC(=O)c4ccccc4)[C@H]21)C3(C)C [docetaxel],association of the TDP with sensitivity in PDX models,[1],not associated with sensitivity
"O=C(c1cc(Cc2n[nH]c(=O)c3ccccc23)ccc1F)N1CCN(C(=O)C2CC2)CC1 [Olaparib, olaparib]",IC50 Ln (μM),Hs578T,4.61 Ln (μM)
same,IC50 Ln (μM),HCC1806,2.40 Ln (μM)
same,IC50 Ln (μM),HCC70,4.19 Ln (μM)
same,IC50 Ln (μM),HCC1395 [7],4.28 Ln (μM)
same,IC50 Ln (μM),BT549,3.09 Ln (μM)
same,IC50 Ln (μM),MB157,3.16 Ln (μM)
same,IC50 Ln (μM),HCC38 [9],1.99 Ln (μM)
same,IC50 Ln (μM),HCC1937 [10],4.51 Ln (μM)
same,IC50 Ln (μM),HCC1143,4.57 Ln (μM)
same,IC50 Ln (μM),MB436,3.77 Ln (μM)
same,IC50 Ln (μM),MB231 [11],3.49 Ln (μM)
same,IC50 Ln (μM),HCC1187 [12],3.57 Ln (μM)
Cc1cc(N2CCOCC2)cc2[nH]c(-c3c(NC[C@@H](O)c4cccc(Cl)c4)cc[nH]c3=O)nc12 [BMS-536924],IC50 Ln (μM),HCC2218,6.22 Ln (μM)
same,IC50 Ln (μM),HCC1187 [2],2.81 Ln (μM)
same,IC50 Ln (μM),HCC2157,3.64 Ln (μM)
same,IC50 Ln (μM),HCC1599 [3],5.27 Ln (μM)
